In US20260102377A1, “COMPOSITIONS AND METHODS FOR TREATING MYASTHENIA GRAVIS” (priority 2022, published 2026):

Target: T1, CIC-1 (Rattus norvegicus, UniProt P35524)
T1 construct: from tissue; host or cells: soleus or diaphragm muscle of healthy and EAMG Lewis rats
T1 sequence (P35524 1-994): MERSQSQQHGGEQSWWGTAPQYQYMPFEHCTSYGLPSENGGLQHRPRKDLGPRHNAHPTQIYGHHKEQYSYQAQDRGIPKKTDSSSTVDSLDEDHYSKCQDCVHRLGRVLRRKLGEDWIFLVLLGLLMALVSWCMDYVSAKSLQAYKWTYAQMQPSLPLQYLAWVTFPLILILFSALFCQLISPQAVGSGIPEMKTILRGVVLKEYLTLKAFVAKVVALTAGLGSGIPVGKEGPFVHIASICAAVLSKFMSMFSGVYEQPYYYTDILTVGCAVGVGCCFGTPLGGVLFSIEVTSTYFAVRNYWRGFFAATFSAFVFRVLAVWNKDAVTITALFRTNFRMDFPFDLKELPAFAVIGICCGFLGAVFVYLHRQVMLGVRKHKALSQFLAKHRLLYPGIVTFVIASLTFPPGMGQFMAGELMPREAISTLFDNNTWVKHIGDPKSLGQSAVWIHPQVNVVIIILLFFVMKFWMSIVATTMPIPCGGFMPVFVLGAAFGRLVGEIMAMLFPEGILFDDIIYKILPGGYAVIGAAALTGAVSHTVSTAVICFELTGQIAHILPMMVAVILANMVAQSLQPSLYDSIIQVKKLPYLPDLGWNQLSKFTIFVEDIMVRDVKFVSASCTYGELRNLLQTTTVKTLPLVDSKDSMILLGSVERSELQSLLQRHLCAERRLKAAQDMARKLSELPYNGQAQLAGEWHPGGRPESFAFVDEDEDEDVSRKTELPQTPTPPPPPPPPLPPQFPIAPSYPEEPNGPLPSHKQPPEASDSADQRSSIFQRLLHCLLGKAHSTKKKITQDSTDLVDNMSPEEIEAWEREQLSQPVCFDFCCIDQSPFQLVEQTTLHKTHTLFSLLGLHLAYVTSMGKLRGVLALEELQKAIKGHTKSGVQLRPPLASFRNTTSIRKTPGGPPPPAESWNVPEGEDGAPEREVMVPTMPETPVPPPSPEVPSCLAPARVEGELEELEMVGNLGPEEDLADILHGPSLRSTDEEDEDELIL
Assay: Resting membrane conductance (Gm) in muscle fibres of isolated nerve-muscle preparations
Format: cell-based
Source text: To allow for measurements of electrophysiological properties at the cellular level and for measurements of force, it was necessary to isolate nerve-muscle preparations from the rats. To this end, animals were sacrificed, and muscles were dissected out with 1 to 3 cm of intact nerve. The nerve-muscle preparations were then transferred to the organ baths used for the particular experiments (see below) and perfused with Normal Krebs-Ringer (NKR) solution, consisting of (in mM); 122 NaCl, 25 NaHCO3, 2.8 KCl, 1.2 KH2PO4, 1.2 MgSO4 1.27 CaCl2 and 5 D-glucose. This NKR solution was continuously gassed with a mixture of 95% oxygen and 5% CO2, to maintain a pH of approx. 7.4. In some experiments methyl-sulphate was used to replace Cl^− in the solution. All chemicals used were of analytical grade.

C[C@H](Oc1ccc(Br)cc1-c1ccon1)C(=O)O [NMD670, (2S)-2-[4-bromo-2-(1,2-oxazol-3-yl)phenoxy]propanoic acid]
Membrane conductance (Gm) (20 μM NMD670, rat soleus muscle from healthy (n=20) and EAMG (n=12) animals, before vs after addition): statistically significantly reduced Gm
Membrane conductance (Gm) in bathing solution free of Cl− (increasing concentration of NMD670, Cl−-free solution): did not reduced Gm
